Read-outs that look alike come from different tables or passages of the source.
Columns and labels:
AHK3 = biological target: T1, AHK3 (Arabidopsis thaliana, UniProt Q9C5U1); assay: Activation of cytokinin receptor AHK3 in E. coli KMI001 (β-galactosidase reporter); assay type: cell-based
T1 construct: expressed in transfected cells; host or cells: Escherichia coli KMI001, plasmid pSTV28-AHK3
T1 sequence (Q9C5U1 1-1036): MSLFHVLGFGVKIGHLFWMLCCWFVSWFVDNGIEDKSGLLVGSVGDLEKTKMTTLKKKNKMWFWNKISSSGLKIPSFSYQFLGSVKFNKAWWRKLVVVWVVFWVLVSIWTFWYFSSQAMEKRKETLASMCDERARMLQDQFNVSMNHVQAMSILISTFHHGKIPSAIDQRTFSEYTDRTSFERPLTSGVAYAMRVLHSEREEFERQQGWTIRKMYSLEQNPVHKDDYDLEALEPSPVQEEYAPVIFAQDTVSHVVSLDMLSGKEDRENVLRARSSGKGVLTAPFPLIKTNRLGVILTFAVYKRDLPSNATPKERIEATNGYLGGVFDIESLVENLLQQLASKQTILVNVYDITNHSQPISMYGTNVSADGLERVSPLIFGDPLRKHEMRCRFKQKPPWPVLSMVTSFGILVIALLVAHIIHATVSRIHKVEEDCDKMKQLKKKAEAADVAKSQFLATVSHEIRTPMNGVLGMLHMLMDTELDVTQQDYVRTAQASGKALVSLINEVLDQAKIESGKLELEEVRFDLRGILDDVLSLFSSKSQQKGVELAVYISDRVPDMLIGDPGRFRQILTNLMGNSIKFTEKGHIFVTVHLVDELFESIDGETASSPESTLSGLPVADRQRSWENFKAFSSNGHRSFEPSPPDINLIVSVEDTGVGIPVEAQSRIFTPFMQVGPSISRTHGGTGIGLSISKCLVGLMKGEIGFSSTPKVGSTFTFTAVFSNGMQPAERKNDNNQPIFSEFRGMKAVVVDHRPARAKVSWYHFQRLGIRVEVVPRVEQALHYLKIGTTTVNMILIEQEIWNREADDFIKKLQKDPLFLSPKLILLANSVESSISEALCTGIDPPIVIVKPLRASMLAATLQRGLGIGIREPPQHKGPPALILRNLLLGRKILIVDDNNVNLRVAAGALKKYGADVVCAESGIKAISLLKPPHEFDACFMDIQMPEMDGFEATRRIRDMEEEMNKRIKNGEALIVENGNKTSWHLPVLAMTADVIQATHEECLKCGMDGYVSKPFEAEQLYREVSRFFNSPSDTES
Protocol: Escherichia coli strains KMI001 harbouring the plasmid pIN-III-AHK4 or pSTV28-AHK3 were grown overnight at 25° C. in M9 media enriched with 0.1% casamino acids to OD600˜1. The preculture was diluted 1:600 in 1 ml M9 medium containing 0.1% casamino acids and 1 μl stock solution of either the tested compound (10^−7 M−5×10^−5 M) or solvent control (DMSO, ethanol, methanol) were added. The cultures were further grown at 25° C. in microtiter plate, 200 μl per well. […] The cultures were centrifuged and 50 μl aliquots of the supernatant were transferred to microtiter plate containing 2 μl 50 mM 4-methyl umbelliferyl galactoside which was subsequently incubated for 1 h at 37° C. The reaction was stopped by adding 100 μl 0.2 M Na2CO3. Fluorescence was measured using a Fluoroscan Ascent (Labsystems, Finland) at the excitation and emission wavelengths of 365 and 460 nm, respectively. The OD600 of remaining culture was determined and β-galactosidase activity was calculated as nmol 4-methylumbelliferone×OD600^−1×h^−1.
The EC50 value, the compound concentration activating the receptor to 50%, was calculated from the obtained dose response curves. The compound functioning as cytokinin antagonists should not activate cytokinin signalling pathway. The values shown in Table 2 are means of three replicates and the entire test was repeated at least twice.

melanoma cell line G-361 = assay: Calcein AM cytotoxicity assay, G-361; assay type: cell-based, human; settings: Homo sapiens, G-361, 72 hours
Text: Absence of toxic effects against mammalian (especially human) cell lines in a wide concentration range is one of the requirements on compounds intended for use in agriculture. Because toxic compounds negatively influence metabolic processes in cells, many standard cytotoxicity assays are based on measurement of metabolisation rate of various artificial substrates. Resulting product is then quantified e.g. by means of spectrometry. The assays can be easily modified for use in 96-well plates. For evaluation of cytotoxic effect of the novel substituted 6-(alkylbenzylamino)purine derivatives of this invention, a microtiter assay based on quantification of metabolisation of Calcein AM was used. The assay is widely used in drug screening programs and in chemosensitivity testing. In live cells, Calcein AM is enzymatically hydrolysed and accumulation of resulting calcein is manifested by green fluorescence.
The cells were maintained in Nunc/Corning 80 cm^2 plastic tissue culture flasks and cultured in cell culture medium (DMEM with 5 g/l glucose, 2 mM glutamine, 100 U/ml penicillin, 100 μg/ml streptomycin, 10% fetal calf serum and sodium bicarbonate).
The cell suspensions were prepared and diluted according to the particular cell type and the expected target cell density (10^4 cells per well based on cell growth characteristics) and pippetted (80 μl) into 96-well plates. Inoculates were allowed a pre-incubation period of 24 hours at 37° C., 100% humidity and 5% CO2 for stabilisation. Tested compounds were added in total volume of 20 μl of water at time zero. Usually, test compound was evaluated at six 3-fold dilutions. In routine testing, the highest concentration tested was 100 μM, the eventual changes depended on physico-chemical characteristics of the respective compound. All drug concentrations were tested in triplicates. Incubations of cells with the test compounds lasted for 72 hours at 37° C., in 5% CO2 atmosphere and 100% humidity. At the end of incubation period Calcein AM (Molecular Probes) in PBS was added into final concentration of 1 μg/ml. After another 1 hour of incubation fluorescence (FD) was measured with the Labsystem FIA Reader Fluoroscan Ascent (UK). Growth inhibition (GI) was estimated using the following equitation: GI=(mean FDdrug exposed wells−mean FDblank)/(mean FDcontrol wells−mean FDblank)×100%.

[1] = tested on: Human diploid fibroblasts SNF25; assay: MTT viability assay on human diploid fibroblasts; assay type: cell-based; settings: Homo sapiens, Fibroblast; SNF25 passage 19, 72 hours; read-out: IC50 (reduction in mitochondrial activity, MTT)
Protocol: MTT is a standard colorimetric assay for measurement of proliferation and survival of the cells. Yellow MTT is reduced into violet formazan in metabolically active cells. The amount of formazan is measured by spectrometry. Human diploid fibroblasts SNF25 (passage 19) were seeded in 96-well plate (5000 cells per well). After 6 hours, the cultivation medium (DMEM containing 5 g/l glucose, 2 mM glutamin, 100 U/ml penicillin, 100 μg/ml streptomycin and 10% fetal calf serum) was removed and fresh medium containing a test compound in concentration range of 0-100 μM was added. The concentration was adjusted in cases of compounds with limited solubility. Each concentration was tested in 5 replicates. MTT was added to the cells after 72 hours into final concentration of 0.5 mg/ml. Incubation time was 3 hours. Resulting MTT was disolved in DMSO and absorbance was measured. The cytotoxic effect was estimated as IC=(Awells with compounds/Acontrol wells)×100%.

[2] = E. coli KMI001 pSTV28-AHK3, 28 h incubation, n.i. means without interaction, read-out: EC50 AHK3 (activation of cytokinin receptor)

Compound | EC50 (AHK3) | GI50 (melanoma cell line G-361) | IC50 [1] | EC50 (AHK3; [2])
c1ccc(CNc2ncnc3nc[nH]c23)cc1 [6-(benzylamino)purine] | 18.2 µM | > 100 µM | > 100 µM | –
Cc1cccc(CNc2ncnc3nc[nH]c23)c1O [Compound 8, 6-(2-hydroxy-3-methylbenzylamino)purine] | – | > 50 µM | > 50 µM | > 100 µM
Cc1ccc(O)c(CNc2ncnc3nc[nH]c23)c1 [Compound 10, 6-(2-hydroxy-5-methylbenzylamino)purine] | – | > 100 µM | > 100 µM | > 100 µM
